Results on one molecule are retold here after patent US20100098782A1, “USE OF SODIUM ACID SULFATE AS A DISINFECTANT” (JOHNSONDIVERSEY, INC., priority 2008, published 2010).

Values joined by “and” are separate entries in the source; they are usually repeats but may differ in a detail not shown here. Identical values can stand only once.

The test system of this assay is organisms on freshly killed whole birds (3M Aerobic Count Petrifilm). The assay is described as follows: Whole bird carcass dip test, aerobic count. The settings on record: for Average Organisms/Bird / Organisms/Bird / % Reduction: 10 seconds dip, pre 5 bird dip pH 1.80, post pH 1.96; for Organisms/Bird: individual birds; for % Reduction: vs no-treatment control. The method, then: In order to test the efficacy of the composition of the present invention for use in treating animal carcasses, freshly killed whole birds were dipped and completely immersed in 13 liters of treatment solution for 10 seconds. […] The growth medium was 3M Aerobic Count Petrifilm. The incubation was 2-3 days at 35° C. […] The same test was repeated using commercially available products, […]12, and Eden, comparing these with sodium acid sulfate and sodium acid sulfate in combination with citric acid.

Turning to `CC(O)C(=O)O` (stereo not shown) [Lactic Acid, lactic acid, reference compound], for the setting “2400 ppm Lactic Acid”, the “Average Organisms/Bird” value is listed as 2,054,800 Organisms/Bird; the Organisms/Bird was 600,000 Organisms/Bird and 1,074,000 Organisms/Bird and 2,120,000 Organisms/Bird and 3,240,000 Organisms/Bird (2×); the “% Reduction” value was determined as 10.8%. Also, under “4800 ppm Lactic Acid”, the “Average Organisms/Bird” value was 1,430,000 Organisms/Bird; the Organisms/Bird was 1,000,000 Organisms/Bird and 1,800,000 Organisms/Bird and 1,400,000 Organisms/Bird and 1,520,000 Organisms/Bird; the “% Reduction” value is on record as 37.9%. Moreover, the “antimicrobial effect in carcass dip (in words)” value (lactic acid itself (2400 and 4800 ppm)) is recorded as “relatively little antimicrobial effect”.
